Where two headings read alike, the source gives them in different places.
What was measured:
Assay type in all cases: cell-based
[1] = system: HTT mRNA; assay: Splicing RT-qPCR assay (THP), Table 2A
[2] = system: MYB mRNA; assay: Splicing RT-qPCR assay (THP), Table 2A
[3] = system: HTT mRNA; assay: Gene panel canonical junction qPCR assay, decrease in CJ mRNA, Table 3
Description: (§1) Compounds described herein were used to modulate RNA transcript abundance in cells. The expression of a target mRNA was measured by detecting the formation of an exon-exon junction in the canonical transcript (CJ). A compound mediated exon-inclusion event was detected by observing an increase in formation of a new junction with an alternative exon (AJ). Real-time qPCR assays were used to detect these splicing switches and interrogate the potency of various compounds towards different target genes. A high-throughput real time quantitative PCR (RT-qPCR) assay was developed to measure these two isoforms of the mRNA (CJ and AJ) for exemplary genes, such as HTT, SMN2, and MYB, together with a control housekeeping gene, GAPDH or GUSB or PPIA, used for normalization. Briefly, the A673 or K562 cell line was treated with various compounds described herein (e.g., compounds of Formula (I)). After treatment, the levels of the HTT, MYB, or SMN2 mRNA targets were determined from each sample of cell lysate by cDNA synthesis followed by qPCR.
(§2) The A673 cell line was cultured in DMEM with 10% FBS. Cells were diluted with full growth media and plated in a 96-well plate (15,000 cells in 100 ul media per well). The plate was incubated at 37° C. with 5% CO2 for 24 hours to allow cells to adhere. An 11-point 3-fold serial dilution of the compounds was made in DMSO then diluted in media in an intermediate plate. Compounds were transferred from the intermediate plate to the cell plate with the top dose at a final concentration of 10 uM in the well. Final DMSO concentration was kept at or below 0.25%. The cell plate was returned to the incubator at 37° C. with 5% CO2 for an additional 24 hours.
(§3) The K562 cell line was cultured in IMDM with 10% FBS. For K562, cells were diluted with full growth media and plated in either a 96-well plate (50,000 cells in 50 uL media per well) or a 384-well plate (8,000-40,000 cells in 45 uL media per well). An 11-point 3-fold serial dilution of the compounds were made in DMSO then diluted in media in an intermediate plate. Compound was transferred from the intermediate plate to the cell plate with the top dose at a final concentration of 10 uM in the well. Final DMSO concentration was kept at or below 0.25%. Final volume was 100 uL for 96-well plate and 50 uL for 384-well plate. The cell plate was then placed in an incubator at 37° C. with 5% CO2 for 24 hours.
(§4) The data analysis was performed by first determining the ΔCt vs the housekeeper gene. This ΔCt was then normalized against the DMSO control (ΔΔCt) and converted to RQ (relative quantification) using the 2^(−ΔΔCt) equation. The RQ were then converted to a percentage response by arbitrarily setting an assay window of 3.5 and 4.0 ΔCt for HTT-CJ and MYB-CJ respectively and an assay window of 9 and 3 ΔCt for HTT-AJ and MYB-AJ in 96 well format (50,000 K562 cells/well and 15,000 A673 cells per well) and an assay window of 3 and 4 ΔCt for HTT-CJ and MYB-CJ respectively and an assay window of 5 and 3 ΔCt for HTT-AJ and MYB-AJ respectively in 384 well format (8,000 K562 cells/well example). […] The percentage response was then fitted to the 4 parametric logistic equation to evaluate the concentration dependence of compound treatment. The increase in AJ mRNA is reported as AC50 (compound concentration having 50% response in AJ increase) while the decrease in CJ mRNA levels is reported as IC50 (compound concentration having 50% response in CJ decrease).
(§5) Additional studies were carried out for a larger panel of genes using the protocol provided above. The junction between flanking upstream and downstream exons was used to design canonical junction qPCR assays. At least one of the forward primer, reverse primer or the CY5-labeled 5′ nuclease probe (with 3′ quencher such as ZEN/Iowa Black FQ) was designed to overlap with the exon junction to capture the CJ mRNA transcript. […]

[4] = system: MYB mRNA; assay: as above
Description: as §1, §2, §3, §4, §5

[5] = system: SH-SY5Y (human neuroblastoma) cells; assay: Cell viability, Cell Titer Glo 2.0 assay; details: read-out: Viability SHSY5Y.3 GI50
Description: Compounds described herein were screened for toxicity in K562 (human chronic myelogenous leukemia) and SH-SY5Y (human neuroblastoma) cells using a Cell Titer Glo 2.0 assay.
• Promega CellTiter-Glo® 2.0 Cell Viability Assay (cat #G9241) • Corning 384-well TC-treated microplates (cat #3570)
Cells were plated at 500 cells/well (K562 cells) in 45 μL of IMDM supplemented with 10% FBS in a 384-well opaque plate. Wells containing only medium were used as a blank control. Test compounds (e.g., compounds of Formula (I) or (II) were first serially diluted in DMSO then diluted 1:100 with IMDM+10% FBS. The final concentration of DMSO was 0.1% in each well. The cells were incubated for 72 hours at 37° C. and 5% CO2 before assaying with Cell Titer Glo 2.0 reagent.

[6] = Table 2A, THP, HTT alternative junction (AJ) mRNA, read-out: HTT AJ (AC50, increase in alternative junction mRNA)
[7] = Table 2A, THP, HTT canonical junction (CJ) mRNA, read-out: HTT CJ (IC50, decrease in canonical junction mRNA)
[8] = Table 2A, THP, MYB alternative junction (AJ) mRNA, read-out: MYB AJ (AC50, increase in alternative junction mRNA)
[9] = Table 2A, THP, MYB canonical junction (CJ) mRNA, read-out: MYB CJ (IC50, decrease in canonical junction mRNA)
[10] = decrease in CJ mRNA levels, canonical junction qPCR, gene panel
[11] = Table 2A (THP), AJ mRNA increase, read-out: HTT AJ (increase in alternative junction mRNA, AC50)
[12] = Table 2A (THP), CJ mRNA decrease, read-out: HTT CJ (decrease in canonical junction mRNA, IC50)
[13] = Table 2A (THP), AJ mRNA increase, read-out: MYB AJ (increase in alternative junction mRNA, AC50)
[14] = Table 2A (THP), CJ mRNA decrease, read-out: MYB CJ (decrease in canonical junction mRNA, IC50)
[15] = decrease in canonical junction (CJ) mRNA, gene panel qPCR, Table 3

SMILES | AC50 [1, 6] [nM] | IC50 [1, 7] [nM] | AC50 [2, 8] [nM] | IC50 [2, 9] [nM] | IC50 [3, 10] [nM] | IC50 [4, 10] [nM] | GI50 [5] [nM] | AC50 [1, 11] [nM] | IC50 [1, 12] [nM] | AC50 [2, 13] [nM] | IC50 [2, 14] [nM] | IC50 [3, 15] [nM] | IC50 [4, 15] [nM]
Cc1cn2cc(NC(=O)c3ccc(N4CCC(NC5CC5)CC4)c4cc(CF)nn34)cc(F)c2n1 [Compound 623, 4-[4-(cyclopropylamino)-1-piperidyl]-2-(fluoromethyl)-N-(8-fluoro-2-methyl-imidazo[1,2-a]-pyridin-6-y1)pyrazolo[1,5-a]pyridine-7-carboxamide] | 100 to 1000 | 100 to 1000 | < 100 | < 100 | 100 to 1000 | < 100 | 100 to 1000 | – | – | – | – | – | –
CNS(=O)(=O)CCc1nc(C)cn2cc(NC(=O)c3ccc(N4CCC(NC5CC5)CC4)c4cn(C)nc34)nc12 [Compound 832] | 1000 to 10000 | 1000 to 10000 | 1000 to 10000 | 1000 to 10000 | 1000 to 10000 | 1000 to 10000 | 1000 to 10000 | – | – | – | – | – | –
CNCC1CCCN(c2ccc(C(=O)Nc3cn4cc(C)nc(C)c4n3)c3nn(C)cc23)C1 (centres unmarked) [Compound 534] | – | – | – | – | – | – | > 10000 | > 10000 | > 10000 | > 10000 | > 10000 | > 10000 | > 10000
COc1cc2nn(C)cc2cc1NC(=O)c1ccc(N2CCC(NC3CC3)CC2)c2c(C)n(C)nc12 [Compound 485, 4-[4-(cyclopropylamino)-1-piperidyl]-N-(6-methoxy-2-methyl-indazol-5-yl)-2,3-dimethyl-indazole-7-carboxamide] | – | – | – | – | – | – | 100 to 1000 | 100 to 1000 | 100 to 1000 | 100 to 1000 | 100 to 1000 | 100 to 1000 | 100 to 1000
Cc1cn2cc(NC(=O)c3ccc(N4CCC(NC5CC5)CC4)c4cc(CF)nn34)nc2c(C)n1 [Compound 617, 4-[4-(cyclopropylamino)-1-piperidyl]-N-(6,8-dimethylimidazo[1,2-a]pyrazin-2-yl)-2-(fluoromethyl)-pyrazolo[1,5-a]pyridine-7-carboxamide] | > 10000 | > 10000 | 100 to 1000 | 1000 to 10000 | > 10000 | 1000 to 10000 | 1000 to 10000 | – | – | – | – | – | –
Cc1cn2cc(NC(=O)c3c(F)cc(N4CCC(NC5CC5)CC4)c4nc(C)sc34)cc(F)c2n1 [Compound 662, 4-[4-(cyclopropyl-amino)-1-piperidyl]-6-fluoro-N-(8-fluoro-2-methyl-imidazo[1,2-a]pyridin-6-yl)-2-methyl-1,3-benzothiazole-7-carboxamide] | > 10000 | > 10000 | > 10000 | > 10000 | > 10000 | > 10000 | 1000 to 10000 | – | – | – | – | – | –
CCNC1CCN(c2ccc(C(=O)Nc3cc4cn(C)nc4cc3OC)c3nn(C)cc23)CC1C (centres unmarked) [Compound 605] | 1000 to 10000 | > 10000 | 100 to 1000 | 100 to 1000 | – | – | 1000 to 10000 | – | – | – | – | > 10000 | 100 to 1000
Cc1cn2cc(NC(=O)c3ccc(N4CCC(NC5CC5)CC4)c4cn(C)nc34)nc2c(CN2CCCS2(=O)=O)n1 [Compound 774, 4-[4-(cyclopropylamino)-1-piperidyl]-N-[8-[(1,1-dioxo-1,2-thiazolidin-2-yl)methyl]-6-methyl-imidazo[1,2-a]pyrazin-2-yl]-2-methyl-indazole-7-carboxamide] | > 10000 | > 10000 | > 10000 | > 10000 | > 10000 | > 10000 | > 10000 | – | – | – | – | – | –
Cc1cn2cc(NC(=O)c3c(F)cc(N4CCC(NC5CC5)CC4)c4cn(C)nc34)c(OC3CC3)c(F)c2n1 [Compound 382, N-[7-(cyclopropoxy)-8-fluoro-2-methyl-imidazo [1,2-a]-pyridin-6-yl]-4-[4-(cyclopropylamino)-1-piperidyl]-6-fluoro-2-methyl-indazole-7-carboxamide] | – | – | – | – | – | – | < 100 | < 100 | < 100 | < 100 | < 100 | < 100 | < 100
COc1cc2nn(C)cc2cc1NC(=O)c1ccc(N2CCC(NC3CC3)CC2)c2c(CO)n(C)nc12 [Compound 522, 4-[4-(cyclopropylamino)-1-piperidyl]-3-(hydroxymethyl)-N-(6-methoxy-2-methyl-indazol-5-yl)-2-methyl-indazole-7-carboxamide] | – | – | – | – | – | – | 1000 to 10000 | 1000 to 10000 | 1000 to 10000 | 1000 to 10000 | 1000 to 10000 | 1000 to 10000 | 1000 to 10000
CCNC1CCN(c2ccc(C(=O)Nc3cn4cc(C)nc(C)c4n3)c3nn(C)cc23)CC1C (centres unmarked) [Compound 604] | > 10000 | 1000 to 10000 | 1000 to 10000 | > 10000 | – | – | 1000 to 10000 | – | – | – | – | 1000 to 10000 | > 10000
Cc1cn2cc(NC(=O)c3ccc(N4CCC(NC5CC5)CC4)c4cn(C)nc34)nc2c(CCS(C)(=O)=O)n1 [Compound 702] | > 10000 | > 10000 | 1000 to 10000 | 1000 to 10000 | > 10000 | 1000 to 10000 | > 10000 | – | – | – | – | – | –
Cc1cn2cc(NC(=O)c3ccc(N4CCNCC4)c4cn(C)nc34)cc(Br)c2n1 [Compound 265, N-(8-bromo-2-methyl-imidazo[1,2-a]-pyridin-6-yl)-2-methyl-4-piperazin-1-yl-indazole-7-carboxamide] | – | – | – | – | – | – | 1000 to 10000 | – | – | – | – | – | –
Cc1cn2cc(NC(=O)c3ncc(N4CCC(NC5CC5)CC4)c4cn(C)nc34)nc2c(C)n1 [Compound 264, 4-[4-(cyclopropylamino)-1-piperidyl]-N-(6,8-dimethylimidazo[1,2-a]pyrazin-2-yl)-2-methyl-pyrazolo[3,4-c]pyridine-7-carboxamide] | – | – | – | – | – | – | – | > 10000 | > 10000 | > 10000 | > 10000 | – | –
